By IC50 is commonly meant the concentration at which inhibition is half-maximal. Higher therefore signals weaker potency.

This passage reports IC50 results from ChEMBL document CHEMBL2380207, “Recent advances in natural products from plants for treatment of liver diseases” (Eur J Med Chem, 2013).

This experiment is described as follows: Inhibition of Hepatitis C virus protease. Details: species or system Hepacivirus hominis.

`CC1Cc2cccc(O)c2C(=O)O1` (stereo unspecified) [MELLEIN] displayed an IC50 of 35 µM.
